Measurements from the supplement of paper PMC10307832.

compound: CC1=C(N=C(N=C1N)[C@H](CC(=O)N)NC[C@@H](C(=O)N)N)C(=O)N[C@@H]([C@H](C2=CN=CN2)OC3C(C(C(C(O3)CO)O)O)OC4C(C(C(C(O4)CO)O)OC(=O)N)O)C(=O)N[C@H](C)[C@H]([C@H](C)C(=O)N[C@@H]([C@@H](C)O)C(=O)NCCC5=NC(=CS5)C6=NC(=CS6)C(=O)NCCC[S+](C)C)O [Bleomycin] + CS(=O)(=O)CCNCc1ccc(-c2ccc3ncnc(Nc4ccc(OCc5cccc(F)c5)c(Cl)c4)c3c2)o1 [Lapatinib] (partner 2 µM); experiment: relative viability (nuclei count vs DMSO), 5 days (fraction); higher = more cells survive; conditions: first compound 0.01 µM; main component drawn
Method in brief: (§1)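 Relative viability is defined as nuclei in treated wells over nuclei in vehicle wells. Duplicate plates were run and medians reported. Lung cancer cell lines in 1536-well plates were dosed by pin tool one day after seeding, with one drug or with a fixed anchor-drug dose plus five library-drug doses (not always all listed) in √10 steps, and nuclei were counted after 5 days.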

| Cell Line | relative viability |
| --- | --- |
| NCI-H1792 | 0.848 |
| NCI-H1355 | 0.901 |
| NCI-H322M | 0.467 |
| NCI-H1437 | 0.711 |
| NCI-H1755 | 0.91 |
| NCI-H2023 | 0.521 |
| HCC-15 | 0.808 |
| PC-3 [JPC-3] | 0.455 |
| EKVX | 0.211 |
| LC-2-ad | 0.674 |
| NCI-H1563 | 0.698 |
| NCI-H1944 | 0.533 |
| NCI-H1975 | 0.657 |
| SK-LU-1 | 0.745 |
| ABC-1 | 1.01 |
| NCI-H358 | 0.381 |
| NCI-H661 | 0.501 |
| RERF-LC-KJ | 0.72 |

same assay, conditions: first compound 0.03162 µM; main component drawn

| Cell Line | relative viability |
| --- | --- |
| NCI-H1792 | 0.798 |
| NCI-H1355 | 1.15 |
| NCI-H322M | 0.551 |
| NCI-H1437 | 0.743 |
| NCI-H1755 | 1.03 |
| NCI-H2023 | 0.664 |
| HCC-15 | 0.801 |
| PC-3 [JPC-3] | 0.422 |
| EKVX | 0.209 |
| LC-2-ad | 0.264 |
| NCI-H1563 | 0.76 |
| NCI-H1944 | 0.41 |
| NCI-H1975 | 0.551 |
| SK-LU-1 | 0.858 |
| ABC-1 | 1.03 |
| NCI-H358 | 0.466 |
| NCI-H661 | 0.374 |
| RERF-LC-KJ | 0.702 |

same assay, conditions: first compound 0.1 µM; main component drawn

| Cell Line | relative viability |
| --- | --- |
| NCI-H1792 | 0.841 |
| NCI-H1355 | 0.837 |
| NCI-H322M | 0.543 |
| NCI-H1437 | 0.775 |
| NCI-H1755 | 0.92 |
| NCI-H2023 | 0.506 |
| HCC-15 | 0.806 |
| PC-3 [JPC-3] | 0.473 |
| EKVX | 0.187 |
| LC-2-ad | 0.286 |
| NCI-H1563 | 0.705 |
| NCI-H1944 | 0.355 |
| NCI-H1975 | 0.542 |
| SK-LU-1 | 0.709 |
| ABC-1 | 1.23 |
| NCI-H358 | 0.354 |
| NCI-H661 | 0.349 |
| RERF-LC-KJ | 0.59 |

same assay, conditions: first compound 0.3162 µM; main component drawn

| Cell Line | relative viability |
| --- | --- |
| NCI-H1792 | 0.326 |
| NCI-H1355 | 0.337 |
| NCI-H322M | 0.383 |
| NCI-H1437 | 0.296 |
| NCI-H1755 | 0.631 |
| NCI-H2023 | 0.19 |
| HCC-15 | 0.299 |
| PC-3 [JPC-3] | 0.364 |
| EKVX | 0.127 |
| LC-2-ad | 0.127 |
| NCI-H1563 | 0.611 |
| NCI-H1944 | 0.242 |
| NCI-H1975 | 0.25 |
| SK-LU-1 | 0.35 |
| ABC-1 | 1.01 |
| NCI-H358 | 0.256 |
| NCI-H661 | 0.204 |
| RERF-LC-KJ | 0.354 |

same assay, conditions: first compound 1 µM; main component drawn

| Cell Line | relative viability |
| --- | --- |
| NCI-H1792 | 0.139 |
| NCI-H1355 | 0.257 |
| NCI-H322M | 0.348 |
| NCI-H1437 | 0.373 |
| NCI-H1755 | 0.578 |
| NCI-H2023 | 0.101 |
| HCC-15 | 0.223 |
| PC-3 [JPC-3] | 0.314 |
| EKVX | 0.166 |
| LC-2-ad | 0.105 |
| NCI-H1563 | 0.52 |
| NCI-H1944 | 0.151 |
| NCI-H1975 | 0.213 |
| SK-LU-1 | 0.347 |
| ABC-1 | 0.961 |
| NCI-H358 | 0.254 |
| NCI-H661 | 0.219 |
| RERF-LC-KJ | 0.254 |

compound: COc1cc([C@@H]2c3cc4c(cc3[C@@H](O[C@@H]3O[C@@H]5CO[C@@H](C)O[C@H]5[C@H](O)[C@H]3O)[C@H]3COC(=O)[C@H]23)OCO4)cc(OC)c1O [Etoposide] + COc1cccc2cc(-c3nc([C@H]4CC[C@H](C(=O)O)CC4)n4ncnc(N)c34)[nH]c12 [OSI-027] (partner 0.5 µM); experiment: as above; conditions: first compound 0.01 µM
Method in brief: as §1

| Cell Line | relative viability |
| --- | --- |
| NCI-H1792 | 0.509 |
| NCI-H1355 | 0.383 |
| NCI-H322M | 0.565 |
| NCI-H1437 | 1.04 |
| NCI-H1755 | 0.69 |
| NCI-H2023 | 0.4 |
| HCC-15 | 0.785 |
| PC-3 [JPC-3] | 0.657 |
| EKVX | 0.694 |
| LC-2-ad | 0.81 |
| NCI-H1563 | 0.738 |
| NCI-H1944 | 0.417 |
| NCI-H1975 | 0.733 |
| SK-LU-1 | 0.358 |
| ABC-1 | 0.529 |
| NCI-H358 | 0.711 |
| NCI-H661 | 0.702 |
| RERF-LC-KJ | 0.529 |

same assay, conditions: first compound 0.03162 µM

| Cell Line | relative viability |
| --- | --- |
| NCI-H1792 | 0.699 |
| NCI-H1355 | 0.396 |
| NCI-H322M | 0.607 |
| NCI-H1437 | 0.891 |
| NCI-H1755 | 0.659 |
| NCI-H2023 | 0.451 |
| HCC-15 | 0.718 |
| PC-3 [JPC-3] | 0.731 |
| EKVX | 0.651 |
| LC-2-ad | 0.839 |
| NCI-H1563 | 0.781 |
| NCI-H1944 | 0.52 |
| NCI-H1975 | 0.975 |
| SK-LU-1 | 0.373 |
| ABC-1 | 0.564 |
| NCI-H358 | 0.757 |
| NCI-H661 | 0.712 |
| RERF-LC-KJ | 0.615 |

same assay, conditions: first compound 0.1 µM

| Cell Line | relative viability |
| --- | --- |
| NCI-H1792 | 0.51 |
| NCI-H1355 | 0.3 |
| NCI-H322M | 0.509 |
| NCI-H1437 | 0.423 |
| NCI-H1755 | 0.609 |
| NCI-H2023 | 0.223 |
| HCC-15 | 0.563 |
| PC-3 [JPC-3] | 0.636 |
| EKVX | 0.429 |
| LC-2-ad | 0.473 |
| NCI-H1563 | 0.756 |
| NCI-H1944 | 0.344 |
| NCI-H1975 | 0.594 |
| SK-LU-1 | 0.251 |
| ABC-1 | 0.339 |
| NCI-H358 | 0.366 |
| NCI-H661 | 0.619 |
| RERF-LC-KJ | 0.382 |

same assay, conditions: first compound 0.3162 µM

| Cell Line | relative viability |
| --- | --- |
| NCI-H1792 | 0.696 |
| NCI-H1355 | 0.345 |
| NCI-H322M | 0.468 |
| NCI-H1437 | 0.635 |
| NCI-H1755 | 0.641 |
| NCI-H2023 | 0.286 |
| HCC-15 | 0.291 |
| PC-3 [JPC-3] | 0.736 |
| EKVX | 0.617 |
| LC-2-ad | 0.42 |
| NCI-H1563 | 0.61 |
| NCI-H1944 | 0.294 |
| NCI-H1975 | 0.748 |
| SK-LU-1 | 0.174 |
| ABC-1 | 0.361 |
| NCI-H358 | 0.136 |
| NCI-H661 | 0.494 |
| RERF-LC-KJ | 0.613 |

same assay, conditions: first compound 1 µM

| Cell Line | relative viability |
| --- | --- |
| NCI-H1792 | 0.537 |
| NCI-H1355 | 0.219 |
| NCI-H322M | 0.389 |
| NCI-H1437 | 0.31 |
| NCI-H1755 | 0.585 |
| NCI-H2023 | 0.119 |
| HCC-15 | 0.144 |
| PC-3 [JPC-3] | 0.689 |
| EKVX | 0.364 |
| LC-2-ad | 0.25 |
| NCI-H1563 | 0.466 |
| NCI-H1944 | 0.205 |
| NCI-H1975 | 0.27 |
| SK-LU-1 | 0.172 |
| ABC-1 | 0.179 |
| NCI-H358 | 0.0875 |
| NCI-H661 | 0.267 |
| RERF-LC-KJ | 0.429 |
